Patent publication US20250255889A1, “METHODS FOR TREATMENT SELECTION FOR CHRONIC LYMPHOCYTIC LEUKEMIA (CLL)” (The Broad Institute, Inc., priority 2022, published 2025)

Tested on: primary CLL samples (CD19+ and CD5+ cells)
Assay: High-throughput dynamic BH3 profiling (HT-DBP): drug-induced apoptotic priming (delta priming), cytochrome c release after BH3 peptide
Type: cell-based, human
Description: By “delta priming” is meant the difference in priming of a cell for apoptosis measured in the presence of an agent for treating chronic lymphocytic leukemia relative to priming of the cell in the presence of an inert carrier. In embodiments, the inert carrier is DMSO.
Dynamic BH3 Profiling Dynamic BH3 profiling (DBP) is a drug screening assay that measures the relative priming of cells in a biological sample for cell death by apoptosis in the presence of a specific compound and/or a pro-apoptotic peptide. By “Dynamic BH3 profiling” is meant measuring drug-induced changes in mitochondrial apoptotic priming. Mitochondrial apoptotic priming is a measure of how close to the apoptotic threshold a cell is. A highly primed cell has relatively less anti-apoptotic binding site availability and is closer to the apoptotic threshold than a poorly primed cell, which has more anti-apoptotic availability to buffer an apoptotic assault and is further from the apoptotic threshold. BH3 peptides derived from the BH3 domain of pro-apoptotic BH3-only proteins provoke a response from viable mitochondria. Cytochrome c released from the mitochondria after a short incubation with BH3 peptide is used as a surrogate for priming. In general, the more sensitive a mitochondrion is to a BH3 peptide, the more primed it is. A drug treatment that enhances priming will cause mitochondria to undergo MOMP more easily when incubated with a fixed concentration of a promiscuously binding BH3 peptide, such as BIM BH3 peptide, compared to control-treated cells. See, for example, Potter, D. S. & Letai, A. To prime, or not to prime: that is the question. Cold Spring Harb. Symp. Quant. Biol. 81, 131-140 (2016); Montero, J. et al. Drug-induced death signaling strategy rapidly predicts cancer response to chemotherapy. Cell 160, 977-989 (2015); Daniels, V. W. et al. Metabolic perturbations sensitize triple-negative breast cancers to apoptosis induced by BH3 mimetics. Sci.
Dynamic BH3 profiling and peptides for use therein are described, for example, in Certo, et al., “Mitochondria primed by death signals determine cellular addiction to antiapoptotic BCL-2 family members,” Cancer Cell, 9:351-365 (2006); and in Foight, et al. “Designed BH3 Peptides with High Affinity and Specificity for Targeting Mcl-1 in Cells,” ACS Chemical Biology, 9:1962-1968 (2014), the disclosures of which are incorporated herein by reference in their entireties for all purposes. The DBP assay enables one to compare the response of a patient tumor sample to a specific drug relative to other drugs and relative to an inert control (e.g., DMSO).
To address the challenge of selecting a proper treatment for a chronic lymphocytic leukemia, experiments were undertaken to optimize high-throughput dynamic BH3 profiling (HT-DBP) for evaluation of the drug sensitivities of CLL samples (FIGS. 1, 13, 5A, 5B, 6A, 6B, and 7A-7C).

[1] = peptide PUMA 1 uM, feature EC-m2
[2] = peptide PUMA 1 uM, feature loss_6q21
[3] = peptide BAD 0.3 uM, feature EC-i
[4] = peptide BAD 0.3 uM, feature loss_1q42.13
[5] = peptide BAD 0.3 uM, feature loss_7p22.2
[6] = peptide BAD 0.3 uM, feature loss_14q32.12
[7] = peptide BAD 0.3 uM, feature loss_16p11.2
[8] = peptide MS1 2.5 uM, feature CNOT3
[9] = peptide PUMA 1 uM, feature loss_7p22.2
[10] = peptide BIM 0.01 uM, feature EC-m2
[11] = peptide BIM 0.01 uM, feature loss_17q23.1
[12] = peptide MS1 2.5 uM, feature ITIH2
[13] = peptide BIM 0.01 uM, feature FBXW7
[14] = peptide BIM 0.01 uM, feature gain_19p13.3
[15] = peptide MS1 2.5 uM, feature BIRC3
[16] = peptide MS1 2.5 uM, feature loss_9p21.3
[17] = peptide MS1 2.5 uM, feature loss_17q11.2
[18] = peptide PUMA 1 uM, feature gain_7q22.1
[19] = peptide PUMA 1 uM, feature loss_14q32.12

Cc1c(-c2ccc(N3CCc4cccc(C(=O)Nc5nc6ccccc6s5)c4C3)nc2C(=O)O)cnn1CC12CC3CC(CC(C3)C1)C2 [A-1331852]
direction (Feature EC-m2): Resistant
direction (peptide BAD 0.3 uM, feature CNOT3): Sensitive
direction (peptide BIM 0.01 uM, feature CARD11): Resistant
direction (peptide BIM 0.01 uM, feature EC-u2): Sensitive
direction (peptide BIM 0.01 uM, feature MYD88): Resistant
direction (peptide PUMA 1 uM, feature CNOT3): Sensitive
direction [1]: Resistant
direction [2]: Resistant

Cc1c2c(nn1C)CSCc1cc(n(C)n1)CSc1cc(c3ccccc3c1)OCCCc1c(C(=O)O)n(C)c3c-2c(Cl)ccc13 [AZD5991]
direction (Feature EC-i): Sensitive
direction (Feature loss_3p13): Sensitive
direction [3]: Sensitive
direction (peptide BAD 0.3 uM, feature POT1): Sensitive
direction [4]: Sensitive
direction [5]: Sensitive
direction [6]: Sensitive
direction [7]: Sensitive
direction (peptide BIM 0.01 uM, feature ANK1): Sensitive
direction (peptide BIM 0.01 uM, feature loss_1p36.11): Sensitive
direction (peptide BIM 0.01 uM, feature loss_3p13): Sensitive
direction (peptide BIM 0.01 uM, feature loss_15q26.1): Sensitive
direction (peptide BIM 0.01 uM, feature loss_18q21.2): Sensitive
direction [8]: Sensitive
direction (peptide PUMA 1 uM, feature BIRC3): Sensitive
direction (peptide PUMA 1 uM, feature EC-i): Sensitive
direction (peptide PUMA 1 uM, feature loss_1q42.13): Sensitive
direction [9]: Sensitive
direction (peptide PUMA 1 uM, feature loss_9p21.3): Sensitive
direction (peptide PUMA 1 uM, feature loss_16p11.2): Sensitive
direction (peptide PUMA 1 uM, feature loss_17q11.2): Sensitive

COc1ccc(-c2ccc3c(N4CCOC[C@@H]4C)nc(N4CCOC[C@@H]4C)nc3n2)cc1CO [AZD8055]
direction (peptide MS1 2.5 uM, feature IGLV321_R110): Resistant
direction (peptide MS1 2.5 uM, feature NOTCH1): Resistant
direction (peptide MS1 2.5 uM, feature RPS15): Resistant
direction (peptide MS1 2.5 uM, feature loss_1p36.11): Resistant
direction (peptide MS1 2.5 uM, feature loss_3p13): Resistant
direction (peptide MS1 2.5 uM, feature loss_6q): Resistant
direction (peptide MS1 2.5 uM, feature loss_18q21.2): Resistant

CN(C)Cc1c(C(=O)NCCOc2ccc(C(=O)NO)cc2)oc2ccccc12 [Abexinostat]
drug-induced apoptotic priming (across CLL subtypes, 65 primary CLL samples, 20 hours drug): high priming
efficacy by DBP response (cases where patients would be likely resistant to Nutlin 3, MK-2206 and Zanubrutinib): effective
direction (peptide BAD 0.3 uM, feature EC-m2): Sensitive
direction (peptide BIM 0.01 uM, feature CNOT3): Sensitive
direction [10]: Sensitive
direction [11]: Sensitive
direction (peptide BIM 0.01 uM, feature priortrt_Post): Sensitive
direction (peptide MS1 2.5 uM, feature FBXW7): Sensitive
direction [12]: Sensitive
direction (peptide MS1 2.5 uM, feature priortrt_Post): Sensitive
direction [1]: Sensitive
direction [2]: Sensitive
direction (peptide PUMA 1 uM, feature loss_17q23.1): Sensitive

CC(C)c1c(C(=O)Nc2ccccc2)c(-c2ccccc2)c(-c2ccc(F)cc2)n1CC[C@@H](O)C[C@@H](O)CC(=O)O [Atorvastatin]
direction (peptide BAD 0.3 uM, feature EC-u1): Sensitive
direction (peptide BAD 0.3 uM, feature FBXW7): Sensitive
direction (peptide BAD 0.3 uM, feature M-CLL): Resistant
direction (peptide BAD 0.3 uM, feature RFX7): Sensitive
direction (peptide BAD 0.3 uM, feature U-CLL): Sensitive
direction (peptide BAD 0.3 uM, feature ZMYM3): Sensitive
direction (peptide BAD 0.3 uM, feature gain_19p13.3): Sensitive
direction (peptide BAD 0.3 uM, feature m-CLL): Resistant
direction (peptide BAD 0.3 uM, feature n-CLL): Sensitive
direction (peptide BIM 0.01 uM, feature EC-u1): Resistant
direction [13]: Resistant
direction (peptide BIM 0.01 uM, feature RFX7): Resistant
direction (peptide BIM 0.01 uM, feature ZMYM3): Resistant
direction [14]: Resistant
direction (peptide BIM 0.01 uM, feature loss_2q31.1): Resistant
direction (peptide BIM 0.01 uM, feature loss_10p12.2): Resistant
direction (peptide BIM 0.01 uM, feature loss_10q24.2): Resistant
direction (peptide BIM 0.01 uM, feature n-CLL): Resistant
direction (peptide MS1 2.5 uM, feature RFX7): Resistant
direction (peptide MS1 2.5 uM, feature ZMYM3): Resistant
direction (peptide MS1 2.5 uM, feature loss_2q31.1): Resistant
direction (peptide MS1 2.5 uM, feature loss_10p12.2): Resistant
direction (peptide MS1 2.5 uM, feature loss_10q24.2): Resistant
direction (peptide MS1 2.5 uM, feature loss_11q22.3): Resistant
direction (peptide MS1 2.5 uM, feature n-CLL): Resistant
direction (peptide PUMA 1 uM, feature FBXW7): Resistant
direction (peptide PUMA 1 uM, feature RFX7): Resistant
direction (peptide PUMA 1 uM, feature ZMYM3): Resistant
direction (peptide PUMA 1 uM, feature gain_16p11.2): Resistant
direction (peptide PUMA 1 uM, feature loss_2q31.1): Resistant
direction [9]: Resistant
direction (peptide PUMA 1 uM, feature loss_10p12.2): Resistant

Nc1ncn([C@@H]2O[C@H](CO)[C@@H](O)[C@H]2O)c(=O)n1 [Azacitidine]
direction (Feature CARD11): Sensitive
direction (peptide BAD 0.3 uM, feature CARD11): Sensitive
direction (peptide BAD 0.3 uM, feature MYD88): Sensitive
direction (peptide BAD 0.3 uM, feature loss_19p13.11): Sensitive
direction (peptide BIM 0.01 uM, feature BIRC3): Resistant
direction [13]: Resistant
direction (peptide BIM 0.01 uM, feature ITIH2): Resistant
direction [14]: Resistant
direction (peptide BIM 0.01 uM, feature loss_9p21.3): Resistant
direction (peptide BIM 0.01 uM, feature loss_17q11.2): Resistant
direction [15]: Sensitive
direction [12]: Sensitive
direction [16]: Sensitive
direction [17]: Sensitive
direction (peptide MS1 2.5 uM, feature loss_19p13.11): Sensitive
direction (peptide PUMA 1 uM, feature CARD11): Sensitive

Cn1c(CCCC(=O)O)nc2cc(N(CCCl)CCCl)ccc21 [Bendamustine]
direction (Feature loss_5p15.33): Sensitive
direction (Feature loss_7p22.2): Sensitive
direction (Feature loss_12p13.31a): Sensitive
direction (Feature loss_14q32.12): Sensitive
direction [3]: Sensitive
direction [4]: Sensitive
direction (peptide BAD 0.3 uM, feature loss_5p15.33): Sensitive
direction [5]: Sensitive
direction (peptide BAD 0.3 uM, feature loss_12p13.31a): Sensitive
direction [6]: Sensitive
direction [7]: Sensitive
direction [15]: Sensitive
direction [8]: Sensitive
direction [16]: Sensitive
direction [17]: Sensitive
direction [18]: Sensitive
direction [19]: Sensitive

CC(C)C[C@H](NC(=O)[C@H](CCc1ccccc1)NC(=O)CN1CCOCC1)C(=O)N[C@@H](Cc1ccccc1)C(=O)N[C@@H](CC(C)C)C(=O)[C@@]1(C)CO1 [Carfilzomib]
direction [10]: Sensitive
direction [11]: Sensitive
direction (peptide PUMA 1 uM, feature MYD88): Sensitive
direction [18]: Sensitive
direction (peptide PUMA 1 uM, feature i-CLL): Sensitive
direction (peptide PUMA 1 uM, feature loss_3p21.31): Sensitive
direction [19]: Sensitive
